Test [1] concerns CCR5-dependent HIV-1BaL strain. Kind of test: "cell-free" acute infection test (growth of HIV-1 in pre-activated primary mononuclear cells, p24 antigen). Particulars: at the tested doses. The format is cell-based. From the text:
Some peptides of the invention have been tested to verify their inhibitory activity against HIV virus-1. Two different tests have been used: the “cell-free ” acute infection test and the test of inhibition of the formation of syncitia. The first test evaluates the growth of HIV-1 in primary mononuclear cells pre-activated in vitro and is closer to the natural model of infection. On the other hand, the test of syncitia inhibition evaluates the capability of an inhibitor to inhibit the membrane fusion induced by HIV and it makes use of cells of a continuous line T CD4+ (PM1) chronically infected with an HIV-1 CCR5-dependent (PM1BaL) strain. In both tests, cells were pre-treated with the peptides before exposition to the virus or to 5 the infected cells. Scalar concentrations for each peptide have been tested to calculate the 50% inhibitory dose (ID50), i.e. the dose capable of reducing by 50% the values of the untreated controls. The ID50 values (expressed as micromolar values) of different peptides in the acute infection test are illustrated in the following Table:
The ability of the mutants obtained as described in Example 2, to inhibit the infection by the prototypic macrophage-tropic HIV-1BaL strain, was evaluated in primary cultures of activated mononuclear cells from peripheral blood. The procedure used to infect PBL and to evaluate the production of p24 antigen is described in literature (Scarlatti et al., Nat. Med. November 3:11 1259-65, 1997).

For test [2], the system named is HIV-1 CCR5-dependent (PM1BaL) strain. As to the kind of experiment: test of inhibition of the formation of syncitia (PM1 cells chronically infected with HIV-1BaL). The format is cell-based. The conditions noted are these: PM1 line infected by HIV-1BaL. From the text:
Some peptides of the invention have been tested to verify their inhibitory activity against HIV virus-1. Two different tests have been used: the “cell-free ” acute infection test and the test of inhibition of the formation of syncitia. The first test evaluates the growth of HIV-1 in primary mononuclear cells pre-activated in vitro and is closer to the natural model of infection. On the other hand, the test of syncitia inhibition evaluates the capability of an inhibitor to inhibit the membrane fusion induced by HIV and it makes use of cells of a continuous line T CD4+ (PM1) chronically infected with an HIV-1 CCR5-dependent (PM1BaL) strain. In both tests, cells were pre-treated with the peptides before exposition to the virus or to 5 the infected cells. Scalar concentrations for each peptide have been tested to calculate the 50% inhibitory dose (ID50), i.e. the dose capable of reducing by 50% the values of the untreated controls. The ID50 values (expressed as micromolar values) of different peptides in the acute infection test are illustrated in the following Table: […]

Regarding Ace-CFAYIARPLPRAHIKEYFY-NH2 [Peptide 2], in test [1], the “capability to inhibit the acute infection (in words)” value is given as “marked increase in the capability to, inhibit the acute infection”. Besides, in test [2], the “capability to inhibit the formation of syncitia (in words)” value is on record as “increased capability to inhibit the formation of syncitia”.

For the substance “Ace-FAYIARPLPRAHIKEYFY-NH2 (Ac-FAYIARPLPRAHIKEYFY-NH2) [Peptide 1]”, the “capability to inhibit the acute infection (in words)” value in test [1] is given as “marked increase in the capability to, inhibit the acute infection”. For the same substance, the “capability to inhibit the formation of syncitia (in words)” value in test [2] is “increased capability to inhibit the formation of syncitia”.

“SGKCSNPAVVFV [RANTES peptide used as control]”: the “capability to inhibit the acute infection (in words)” value in test [1] is “no antiviral activity”.

“YFYTSGKCSNPA [RANTES peptide used as control]”: the “capability to inhibit the acute infection (in words)” value in test [1] is listed as “no antiviral activity”.

With “YTSGKCSNPAVV [B, RANTES peptide used as control]”, the “capability to inhibit the acute infection (in words)” value in test [1] was “no antiviral activity”.

For the origin of these results see patent publication US6709649B1, “RANTES derived peptides with anti-HIV activity” (Fondazione Centro San Raffaele Del Monte Tabor, priority 1998, dated 2004).
